# From publication PMC9502836, “Zika Virus Inhibitors Based on a 1,3-Disubstituted 1H-Pyrazolo[3,4-d]pyrimidine-amine Scaffold” (Molecules, 2022)
# Read-outs that look alike come from different tables or passages of the source.
# Experiments:
# luciferase reporter ZIKV [1] = conditions: Huh7 cells, cited from earlier work
# ZIKV [2] = tested on: ZIKV; set-up: method as in PMID 34206327; conditions: Huh7 cells, cited from earlier work; for EC50: read-out: Titer Reduction Assay EC50
# Huh7 cells = tested on: Huh7 cells; set-up: method as in PMID 34206327; conditions: cited from earlier work
# luciferase reporter ZIKV [3] = test: luciferase-based ZIKV reporter assay in Huh7 cells; format: cell-based; conditions: Zika virus; for inhibition at 10 µM: Huh-7, 72 h, read-out: ZIKV Reporter Assay Inhibition (%) at 10 µM
# Description: (§1) In the current study, we continued to use our previously reported luciferase-based ZIKV reporter assay as a primary antiviral screening, by which newly synthesized compounds were tested (at 10 µM) along with NITD008 (Figure 1, at 1 µM), a flavivirus RNA-dependent RNA polymerase (RdRp) inhibitor, and NSC 12155 (Figure 1, at 10 µM), a flavivirus NS5 methyltransferase (MTase) inhibitor, as reference compounds (Table 1). […] For active compounds (>60% titer-reduction), dose-response experiments were performed to determine EC50 (half maximal effective concentration, a concentration that is needed to cause half of the maximum possible pharmacological effect) and CC50 (half cytotoxic concentration, a concentration that is required to reduce cell viability by 50%) values. For selected compounds, EC50 values in the reporter assay were also measured.
# (§2) The ZIKV reporter assay and titer-reduction assay were performed as previously reported. Briefly, Huh7 cells (1.5 × 10^4) were seeded in a 96-well plate and inoculated with a luciferase reporter ZIKV (MOI=0.2). After two hours, the cells were treated with medium containing the compound (10 µM). After 3 days post-infection, the cells were lysed, the Nanoluc signal was detected using the Nano-Glo® luciferase assay (Promega), then measured using a Neo 2 plate reader (BioTek, Winooski, VT, USA). For titer-reduction assays, 1.5 × 10^5 Huh7 cell were seeded in a 24-well plate. Next day, the cells were inoculated with ZIKV for two hours. The inoculum was replaced with compound-containing medium (8.5 µM) and incubated for 3 days. Supernatants were collected and viral titers were estimated by plaque assay.
# ZIKV [4] = test: ZIKV titer reduction assay (plaque assay of supernatants) in Huh7 cells; format: cell-based; conditions: Zika virus; for inhibition at 8.5 µM: Huh-7, 72 h, read-out: Titer Reduction Assay % at 8.5 µM
# Description: as §1, §2
# [5] = Cell viability (CC50) assay, MTS-based; conditions: human; for viability at 3 days, 10 µM: 10 µM compound, Huh7 cells, read-out: ZIKV Reporter Assay Viability (%) at 10 µM
# Description: as §1
# The cell viability assay was performed in Huh7 cells as previously reported. Briefly, non-infected Huh7 cells were treated with the testing compounds for 3 days. Viability was measured by absorbance at […] using the MTS-based tetrazolium reduction CellTiter 96 Aqueous Non-Radioactive cell proliferation assay (Promega).
# [6] = 8.5 µM compound, Huh7 cells, 3 days
Compound,EC50 (ZIKV [2]) [µM],CC50 (Huh7 cells) [µM],inhibition at 10 µM (luciferase reporter ZIKV [3]) [%],"viability at 3 days, 10 µM ([5]; 3 days) [%]",inhibition at 8.5 µM (ZIKV [4]; [6]) [%],other results
Cc1cc(N)c2cc(NC(=O)Nc3ccc4nc(C)cc(N)c4c3)ccc2n1 [NSC 12155],7.34,23,–,–,–,ZIKV Reporter Assay Inhibition (%) at 10 µM (luciferase reporter ZIKV [1]; 10 µM): 68%; EC50 (luciferase reporter ZIKV [1]): 2.18 µM; Titer Reduction Assay % at 8.5 µM (ZIKV [2]; 8.5 µM): 72%; ZIKV Reporter Assay Viability (%) at 10 µM (Huh7 cells; 10 µM): 70%
"Nc1ncnc2c1c(COc1ccccc1)nn2Cc1ccc(Cl)nc1 [Compound 21, 1-((6-Chloropyridin-3-yl)methyl)-3-(phenoxymethyl)-1H-pyrazolo[3,4-d]pyrimidin-4-amine]",–,–,82,64,–,"EC50 (luciferase reporter ZIKV [3]; Huh-7, read-out: ZIKV Reporter Assay EC50): 3.5 µM; inhibition at 8.5 µM (ZIKV [4]): 74%; EC50 (ZIKV [4]; Huh-7, read-out: Titer Reduction Assay EC50): 5.2 µM; CC50 at 3 days [5]: 25 µM"
O=[N+]([O-])c1ccc(Cn2ccc3c(NCc4cccc(Cl)c4)ncnc32)cc1 [Compound 1],5.2,20,–,–,–,–
"Nc1ncnc2c1c(COc1ccccc1)nn2Cc1ccc([N+](=O)[O-])cc1 [Compound 6, 1-(4-Nitrobenzyl)-3-(phenoxymethyl)-1H-pyrazolo[3,4-d]pyrimidin-4-amine]",–,–,65,82,65,"EC50 (ZIKV [4]; Huh-7, Huh7 cells, read-out: Titer Reduction Assay EC50): 5.1 µM; CC50 at 3 days ([5]; non-infected Huh7 cells, 3 days, read-out: CC50): 39 µM"
"Nc1ncnc2c1c(COc1cccc(Cl)c1)nn2Cc1ccc([N+](=O)[O-])cc1 [Compound 30, 3-((3-Chlorophenoxy)methyl)-1-(4-nitrobenzyl)-1H-pyrazolo[3,4-d]pyrimidin-4-amine]",–,–,52,93,11,–
